Test: Tacrolimus tissue pharmacokinetics, oral vs intra-cecal ingestible device delivery
Type: in vivo, Yorkshire-Cross farm swine
Conditions: swine; intra-cecally vs orally administered; 12 hours post-dose; FIG. 76
Protocol: The primary objective of this study was to compare the tissue, plasma, rectal sample, and GI content pharmacokinetics of tacrolimus through oral versus intra-cecal ingestible device delivery in normal Yorkshire-Cross farm swine.
No further randomization procedure was employed.
Animals in Group 1 received an ingestible device containing 0.8 mL of vehicle solution (80% alcohol, 20% HCO-60). Animals in Group 2 received orally […] liquid formulation of tacrolimus at 4 mg/0.8 mL per animal (Prograf: 5 mg/mL). Animals in Group 3 received intra-cecally an ingestible device containing tacrolimus at 1 mg in 0.8 mL per ingestible device. Animals in Group 4 received intra-cecally an ingestible device containing tacrolimus at 2 mg in 0.8 mL per ingestible device. Animals in Group 5 received intra-cecally an ingestible device containing tacrolimus at 4 mg in 0.8 mL per ingestible device. […]
For tissue necropsy, small intestine fluid and cecal fluid were collected separately from all the animals into two separate square plastic bottles, and stored at −20° C. The length and diameter of the cecum and the colon was measured from one animal in each group and recorded for reference. […] All samples were weighed, and the tissue sample weights were recorded. […] Around 3 grams of the total punched sample were collected into a pre-weighed 15-mL conical tube, and the tissue weight was recorded. […]

mean concentration of tacrolimus in the cecum tissue and the proximate colon tissue: higher
SMILES: C=CC[C@@H]1/C=C(\C)C[C@H](C)C[C@H](OC)[C@H]2O[C@@](O)(C(=O)C(=O)N3CCCC[C@H]3C(=O)O[C@H](/C(C)=C/[C@@H]3CC[C@@H](O)[C@H](OC)C3)[C@H](C)[C@@H](O)CC1=O)[C@H](C)C[C@@H]2OC [tacrolimus]
